Where two headings read alike, the source gives them in different places.
Columns and labels:
human DGKα [1] = biological target: T1, human DGKα (Homo sapiens (Human), UniProt P23743); test: DGKα LIPGLO assay (extruded liposome substrate, ADP-Glo luminescence); type: biochemical; settings: liposome assay; read-out: DGK alpha LIPGLO IC50
human DGKζ = human DGKζ (Homo sapiens (Human), UniProt Q13574); test: DGKζ LIPGLO assay (extruded liposome substrate, ADP-Glo luminescence); type: biochemical; settings: liposome assay; read-out: DGK zeta LIPGLO IC50
human DGKζ, sequence (Q13574 other isoform, or with tags, fused parts or gaps): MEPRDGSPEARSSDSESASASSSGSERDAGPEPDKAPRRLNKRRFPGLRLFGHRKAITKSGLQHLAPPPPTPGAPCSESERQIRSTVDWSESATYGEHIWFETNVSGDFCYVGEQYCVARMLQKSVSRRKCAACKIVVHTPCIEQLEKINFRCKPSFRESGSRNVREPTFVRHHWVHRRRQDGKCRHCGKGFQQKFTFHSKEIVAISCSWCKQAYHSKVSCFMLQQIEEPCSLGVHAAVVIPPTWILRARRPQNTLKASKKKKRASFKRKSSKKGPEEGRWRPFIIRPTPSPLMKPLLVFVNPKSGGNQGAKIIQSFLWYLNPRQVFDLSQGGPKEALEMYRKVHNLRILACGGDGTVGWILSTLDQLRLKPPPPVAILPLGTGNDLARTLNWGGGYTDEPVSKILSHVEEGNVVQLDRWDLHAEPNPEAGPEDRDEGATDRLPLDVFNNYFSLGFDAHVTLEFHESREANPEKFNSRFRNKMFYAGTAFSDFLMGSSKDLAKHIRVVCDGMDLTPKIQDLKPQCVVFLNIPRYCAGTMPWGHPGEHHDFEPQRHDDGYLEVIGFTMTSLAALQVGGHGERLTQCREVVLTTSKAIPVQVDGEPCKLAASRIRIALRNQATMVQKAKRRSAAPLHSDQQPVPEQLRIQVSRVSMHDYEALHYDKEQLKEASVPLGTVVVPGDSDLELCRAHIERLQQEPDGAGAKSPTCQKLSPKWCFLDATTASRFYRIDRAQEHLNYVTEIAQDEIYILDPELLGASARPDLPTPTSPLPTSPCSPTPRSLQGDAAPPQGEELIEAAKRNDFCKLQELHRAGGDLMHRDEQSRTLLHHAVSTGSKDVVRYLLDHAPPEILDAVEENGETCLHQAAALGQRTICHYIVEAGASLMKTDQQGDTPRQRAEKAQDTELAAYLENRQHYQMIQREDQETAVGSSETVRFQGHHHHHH

human DGKα [2] = biological target: T1, human DGKα; test: DGKα ADPGLO assay (detergent/lipid micelle substrate); type: biochemical; settings: truncated DGK alpha; read-out: DGK alpha ADPGLO (Truncated) IC50
Experimental: DGK Alpha ADPGLO (Truncated) IC50 (uM)
The detergent/lipid micelle was prepared by combining 15 g phosphatidylserine (Avanti 840035P) and 1 g diacylglycerol (8008110) and dissolving into 150 mL chloroform in a 2 L round bottom flask. Chloroform was removed under high vacuum by rotary evaporation. […] The lipid/detergent solution was split into 5 mL aliquots and stored at −80° C.

[3] = system: human venous whole blood (IFN-γ); test: Human whole blood IFN-γ assay; type: cell-based; settings: whole blood, normalized to 3 μM reference compound as 100% activation, read-out: IFN-γ Whole Blood Normalized EC50
Experimental: Human venous whole blood (22.5 μL per well), obtained from healthy donors, was pre-treated with compounds for one hour at 37° C. in a humidified 95% air/5% CO2 incubator. The blood was stimulated with 2.5 μL anti-human CD3 and anti-CD28 mAb at a final concentration of 1 μg/mL each for 24 hours at 37° C. IFN-γ in the supernatants was measured using AlphLISA kit (Cat #AL217).

whole blood (pERK) = test: pERK Whole Blood assay (Table A; no whole-blood pERK method described); type: cell-based; settings: normalized

T1 sequence (P23743 whole entry, looked up): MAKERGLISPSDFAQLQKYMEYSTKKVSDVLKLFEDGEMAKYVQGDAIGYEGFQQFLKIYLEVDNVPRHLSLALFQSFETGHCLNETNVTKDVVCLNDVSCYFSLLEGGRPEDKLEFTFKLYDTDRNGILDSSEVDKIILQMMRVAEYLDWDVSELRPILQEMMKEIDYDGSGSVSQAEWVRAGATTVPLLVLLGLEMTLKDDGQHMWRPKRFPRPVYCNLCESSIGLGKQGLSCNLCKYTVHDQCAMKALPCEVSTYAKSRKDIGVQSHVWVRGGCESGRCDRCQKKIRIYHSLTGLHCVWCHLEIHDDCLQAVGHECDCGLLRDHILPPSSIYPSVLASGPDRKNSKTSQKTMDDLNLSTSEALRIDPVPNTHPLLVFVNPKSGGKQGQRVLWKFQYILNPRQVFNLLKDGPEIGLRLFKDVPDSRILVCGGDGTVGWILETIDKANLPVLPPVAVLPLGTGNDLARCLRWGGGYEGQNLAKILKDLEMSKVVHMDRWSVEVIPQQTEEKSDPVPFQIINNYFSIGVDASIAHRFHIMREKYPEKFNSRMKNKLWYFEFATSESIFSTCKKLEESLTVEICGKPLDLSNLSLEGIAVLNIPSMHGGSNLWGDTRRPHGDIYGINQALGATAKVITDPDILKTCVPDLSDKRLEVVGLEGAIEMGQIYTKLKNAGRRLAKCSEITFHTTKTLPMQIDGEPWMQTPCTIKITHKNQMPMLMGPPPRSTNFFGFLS

| Compound | IC50 (human DGKα [1]) [µM] | IC50 (human DGKζ) [µM] | IC50 (human DGKα [2]) [µM] | EC50 [3] [µM] | IC50 (whole blood (pERK)) [µM] | EC50 ([3]; Homo sapiens) [µM] |
| --- | --- | --- | --- | --- | --- | --- |
| CCC(c1ccc(OC(F)(F)F)cc1)N1C[C@H](CC)N(c2nc(=O)n(C)c3ccc(C#N)nc23)C[C@H]1CC (single isomer, unassigned) [Example 37] | 0.069 | 0.47 | 0.12 | 20 |  |  |
| CC[C@H]1CN(C(c2ccc(OC)cc2)C(C)C)[C@H](CC)CN1c1nc(=O)n(C)c2ccc(C#N)nc12 (stereo partly drawn) [Example 249, 4-((2S,5R)-2,5-diethyl-4-(1-(4-methoxyphenyl)-2-methylpropyl)piperazin-1-yl)-1-methyl-2-oxo-1,2-dihydropyrido[3,2-d]pyrimidine-6-carbonitrile] |  | 0.04 |  |  | 0.42 |  |
| CCC(c1ccc(C(F)(F)F)cc1)N1C[C@H](C)N(c2nc(=O)n(C)c3ccc(C#N)nc23)C[C@H]1CC (single isomer, unassigned) [Example 90] | 0.12 | 0.59 | 0.14 |  |  |  |
| CC[C@H]1CN(C(C)c2ccc(C(F)(F)F)cc2F)[C@H](CC)CN1c1nc(=O)n(C)c2ccc(C#N)nc12 (single isomer, unassigned) [Example 25] | 1.23 | 1.34 | 0.33 | 1.25 |  |  |
| CC[C@@H]1CN(c2nc(=O)n(C)c3ccc(C#N)nc23)[C@@H](C)CN1C(c1ccc(F)cc1)c1cccc(C(F)(F)F)n1 (single isomer, unassigned) [Example 66] | 0.23 | 0.11 | 0.002 | 0.075 |  |  |
| CC[C@H]1CN(C(c2ccc(OC(C)C)cc2)C(C)C)[C@H](CC)CN1c1nc(=O)n(C)c2ccc(C#N)nc12 (stereo partly drawn) [Example 262, 4-((2S,5R)-2,5-diethyl-4-(1-(4-isopropoxyphenyl)-2-methylpropyl)piperazin-1-yl)-1-methyl-2-oxo-1,2-dihydropyrido[3,2-d]pyrimidine-6-carbonitrile] |  |  |  |  | 4.15 |  |
| CC[C@@H]1CN(c2nc(=O)n(C)c3ccc(C#N)nc23)[C@@H](C)CN1C(c1ccc(F)cc1)c1ccccn1 (single isomer, unassigned) [Example 88] | 0.11 | 0.076 |  | 0.048 |  |  |
| CC[C@H]1CN(C(C)c2ccc(OC(F)(F)F)cc2)[C@H](C)CN1c1nc(=O)n(C)c2ccc(C#N)nc12 (stereo partly drawn) [Example 123, 4-((2S,5R)-2-ethyl-5-methyl-4-(1-(4-(trifluoromethoxy)phenyl)ethyl)piperazin-1-yl)-1-methyl-2-oxo-1,2-dihydropyrido[3,2-d]pyrimidine-6-carbonitrile] | 1.38 | 1.33 |  |  |  | 2.57 |
| CC[C@@H]1CN(c2nc(=O)n(C)c3ccc(C#N)nc23)[C@@H](C)CN1C(c1ccc(F)cc1)c1cnc(C2CC2)s1 (single isomer, unassigned) [Example 104] | 0.47 | 0.11 |  | 0.21 |  |  |
| CC(c1ccc(C(F)(F)F)cc1)N1C[C@H](C)N(c2nc(=O)n(C)c3ccc(C#N)nc23)C[C@H]1C (single isomer, unassigned) [Example 141] | 1.27 | 1.76 |  | 3.55 |  |  |
| CCC(c1ccc(OC(F)(F)F)cc1F)N1C[C@H](C)N(c2nc(=O)n(C)c3ccc(C#N)nc23)C[C@H]1CC (single isomer, unassigned) [Example 86] | 2.94 | 2.37 | 0.42 | 1.54 |  |  |
| CC(c1ccc(F)cc1)N1C[C@H](C)N(c2nc(=O)n(C)c3ccc(C#N)nc23)C[C@H]1C (single isomer, unassigned) [Example 129] | 0.82 | 1.55 |  |  |  | 13.2 |
| CC[C@@H]1CN(c2nc(=O)n(C)c3ccc(C#N)nc23)[C@@H](C)CN1C(C)c1ccc(C2CC2)cc1 (single isomer, unassigned) [Example 64] | 0.34 | 0.76 |  | 0.69 |  |  |
| CC[C@H]1CN(C(C)c2ccc(C3CC3)cc2F)[C@H](CC)CN1c1nc(=O)n(C)c2ccc(C#N)nc12 (single isomer, unassigned) [Example 41] | 2.27 | 1.08 |  | 0.47 |  |  |
| CC[C@@H]1CN(c2nc(=O)n(C)c3ccc(C#N)nc23)[C@@H](C)CN1C(C)c1ccc(C#N)cc1 (single isomer, unassigned) [Example 61] | 0.052 | 0.38 |  | 4.5 |  |  |
| CC[C@@H]1CN(c2nc(=O)n(C)c3ccc(C#N)nc23)[C@@H](CC)CN1Cc1ccc(OC(F)(F)F)cc1 [Example 22, 4-((2S,5R)-2,5-diethyl-4-(4-(trifluoromethoxy)benzyl)piperazin-1-yl)-1-methyl-2-oxo-1,2-dihydropyrido[3,2-d]pyrimidine-6-carbonitrile] | 0.002 | 0.18 |  |  |  | 0.38 |
| [2H]C([2H])([2H])Oc1ccc(C(C)N2C[C@H](CC)N(c3nc(=O)n(C)c4ccc(C#N)nc34)C[C@H]2CC)cc1 (single isomer, unassigned) [Example 190] | 0.029 | 0.017 |  | 0.009 |  |  |
| CC[C@@H]1CN(c2nc(=O)n(C)c3ccc(C#N)nc23)[C@@H](C)CN1C(C)c1ccc(C2CC2)cc1F (single isomer, unassigned) [Example 92] | 0.46 | 0.12 |  | 0.35 |  |  |
| C[C@H]1CN(C(c2ccc(F)cc2)c2ccc(C(F)(F)F)cn2)[C@H](CO)CN1c1nc(=O)n(C)c2ccc(C#N)nc12 (single isomer, unassigned) [Example 181] | 4.92 | 12.4 |  | 0.73 |  |  |
| CC[C@H]1CN(C(C)c2ccc(C(F)(F)F)nc2)[C@H](CC)CN1c1nc(=O)n(C)c2ccc(C#N)nc12 (single isomer, unassigned) [Example 45] | 0.31 | 0.51 |  | 1.04 |  |  |
| CC[C@@H]1CN(c2nc(=O)n(C)c3ccc(C#N)nc23)[C@@H](C)CN1C(c1ccc(F)cc1)c1ccon1 (single isomer, unassigned) [Example 74] | 0.25 | 0.96 |  | 0.43 |  |  |
| CC[C@@H]1CN(c2nc(=O)n(C)c3ccc(C#N)nc23)[C@@H](C)CN1C(C)c1ccc(OC(C)C)cc1 (single isomer, unassigned) [Example 52] | 0.23 | 0.052 |  | 0.053 |  |  |
| CC(C)c1ccc(CN2C[C@H](C)N(c3nc(=O)n(C)c4ccc(C#N)nc34)C[C@H]2C)cc1 [Example 137, 4-((2S,5R)-4-(4-isopropylbenzyl)-2,5-dimethylpiperazin-1-yl)-1-methyl-2-oxo-1,2-dihydropyrido[3,2-d]pyrimidine-6-carbonitrile] | 0.083 | 0.19 |  |  |  | 2.65 |
| CC[C@H]1CN(C(C)c2ccc(C(F)(F)F)nc2)[C@H](CC)CN1c1nc(=O)n(C)c2ccc(C#N)nc12 (single isomer, unassigned) [Example 44] | 0.085 | 0.021 |  | 0.26 |  |  |
| CCC(c1ccc2c(c1)OC(F)(F)O2)N1C[C@H](C)N(c2nc(=O)n(C)c3ccc(C#N)nc23)C[C@H]1CC (single isomer, unassigned) [Example 79] | 0.3 | 0.023 |  |  |  | 0.3 |
| CC(c1ccc2c(c1)OC(F)(F)O2)N1C[C@H](C)N(c2nc(=O)n(C)c3ccc(C#N)nc23)C[C@H]1C (single isomer, unassigned) [Example 167] | 17.8 | 2.38 |  | 3.85 |  |  |
